According to US20030229066A1, “Novel heterocyclic urea derivatives and their use as dopamine D3 receptor ligands” (priority 2001, published 2003):
Read-outs that look alike come from different tables or passages of the source.

Assays:
[1] = target: T1, cloned human alpha-1A adrenergic receptors (α1a) (Homo sapiens, UniProt P35348); test: [3H]Prazosin binding to cloned human alpha-1A adrenergic receptors expressed in CHO cells; conditions: for Ki: Table II, pairs of 6-fluoro and 6-trifluoromethyl benzo[b]thiophenes, read-out: halpha1Ki
T1 construct: expressed in transfected cells
T1 sequence (P35348 1-466): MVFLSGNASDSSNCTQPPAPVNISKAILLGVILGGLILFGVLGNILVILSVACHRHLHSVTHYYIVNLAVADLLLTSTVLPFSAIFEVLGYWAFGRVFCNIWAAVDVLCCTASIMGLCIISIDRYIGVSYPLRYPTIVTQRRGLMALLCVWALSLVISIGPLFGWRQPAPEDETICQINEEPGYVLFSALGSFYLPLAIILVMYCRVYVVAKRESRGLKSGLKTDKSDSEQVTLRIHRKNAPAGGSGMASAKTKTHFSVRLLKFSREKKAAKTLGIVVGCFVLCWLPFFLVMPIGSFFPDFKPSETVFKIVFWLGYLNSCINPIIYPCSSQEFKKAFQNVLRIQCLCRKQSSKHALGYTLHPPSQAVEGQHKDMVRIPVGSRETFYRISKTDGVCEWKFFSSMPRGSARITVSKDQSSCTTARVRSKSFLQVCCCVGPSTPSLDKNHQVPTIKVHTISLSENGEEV
Description: [^3H]PRAZOSIN BINDING TO CLONED HUMAN ALPHA-1A ADRENERGIC RECEPTORS (α1a) EXPRESSED IN CHINESE HAMSTER OVARY CELLS (CHO)
This in vitro assay is designed as a screen to identify compounds displaying a affinity for the human α1a adrenoceptor subtype expressed in the membrane fragments of CHO cells. The assay-measures the ability of the test compounds to displace [^3H]prazosin from α1a sites.
Therefore, the binding of compounds to α1a adrenergic receptors is believed to be a good measure of a compound's potential to cause orthostatic hypotension and sedation as side effects. Prazosin is a potent antagonist of the human α1a-adrenoceptor subtype, which has been cloned and is expressed in the membrane fragments of CHO cells.
The cloning of the human α1a cDNA was accomplished first by screening a human prostate cDNA library (Clontech), from which a portion of the coding region was obtained. This DNA fragment was then used to screen a human leukocyte genomic library (Clontech), and the rest of the coding sequence was obtained. Later these two fragments were spliced together. The entire coding sequence was then fully sequenced including matching PCR sequence with original genomic coding sequence, thus ensuring splice sites were joined correctly (Schwinn et al., 1995). Once sequenced, the gene was subcloned into the expression vector pcDNA3 (Invitrogen). Plasmid DNA was then used for transfection into CHO cells and G418 resistant clones were isolated. A clone expressing high levels of the hα1a receptor (as determined by mRNA and receptor binding data) was chosen and pharmacologically characterized.
[7-methoxy-^3H]-Prazosin: 1.0 nM (NEN, NET-823) 70-87 Ci/mmol
A: 50 mM Tris HCl; 0.1% ascorbate, pH 7.7 (incubation buffer)
Total Binding=50 μl buffer A+50 μl [^3H]prazosin+100 μl membrane
Nonsp. Bd.=50 μl 10 μM phentolamine+50 μl [^3H]prazosin+100 μl membrane
Test Cpd.=50 μl compound+50 μl [^3H]prazosin+100 μl membrane
Compounds to be evaluated are weighed out to yield a 10 mM stock solution in DMSO in a 24 well polystyrene plate. This is diluted to a 0.5 mM stock in dH2O. Serial dilutions in Buffer A are made from which 50 μl additions to the plate are made in duplicate in order to achieve the final concentrations desired. Typically, one 96 well plate is used to evaluate 11 compounds at 4 concentrations (10^−6-10^−9 M) in duplicate. Total binding and nonspecific binding are determined in quadruplicate. Usually one standard is run with each assay.
[^3H]Prazosin is made up in Buffer A such that when 50 μl are added per well the final concentration is 1.0 nM in a final assay volume of 200 μl. The final concentration should be verified by running a sample in a scintillation counter prior to adding the [^3H]prazosin to the 96 well plate. Note: The radioactivity should be prepared just before the additions are made so that it is not allowed to sit on the bench for very long.
Incubation & Filtration: Once buffer, compounds, [^3H]prazosin and membrane have been added (and mixed), the 96 well plates are incubated for 40 min at 37° C. and spaced 3-5 min apart. At 40 min, the plates are filtered using a Tomtec Automated Cell Harvester. Filtration is immediately followed by washes of ice cold Buffer B (total vol. ˜7 ml).
Analysis of Results: Raw DPM and CPM data are captured on disk and are imported into one of several software packages (Graphpad Prism Ver 2.0, Excel) residing on the LAN. Specific binding is defined as the difference between total binding and the binding in the presence of 10 μM phentolamine. Total binding is less than 10% of the total added ligand. Software using one-site competition curve analysis is employed in the calculation of IC50 and Kj (Cheng-Prusoff equation, 1973). The top and bottom of the non-linear regression are held constant at 0% and 100% inhibition. The percent inhibition at each drug concentration is the mean of duplicate determinations.

[2] = target: T2, cloned human dopamine D3 receptors (Homo sapiens, UniProt P35462); test: [N-Methyl-3H]Spiroperidol binding to cloned human dopamine D3 receptors
T2 construct: expressed in transfected cells
How it was run: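 Competition binding on homogenized CHO cells stably expressing human D3, with 0.4 nM [3H]NMSP (final), 37 °C for 30 min, filtration and scintillation counting. Nonspecific binding defined with 3 μM S(-)-eticlopride; typically eight test concentrations, 10^−5–10^−8 M final. Ki by Cheng-Prusoff from one-site competition fits, duplicate means.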

T2 sequence (P35462 whole entry): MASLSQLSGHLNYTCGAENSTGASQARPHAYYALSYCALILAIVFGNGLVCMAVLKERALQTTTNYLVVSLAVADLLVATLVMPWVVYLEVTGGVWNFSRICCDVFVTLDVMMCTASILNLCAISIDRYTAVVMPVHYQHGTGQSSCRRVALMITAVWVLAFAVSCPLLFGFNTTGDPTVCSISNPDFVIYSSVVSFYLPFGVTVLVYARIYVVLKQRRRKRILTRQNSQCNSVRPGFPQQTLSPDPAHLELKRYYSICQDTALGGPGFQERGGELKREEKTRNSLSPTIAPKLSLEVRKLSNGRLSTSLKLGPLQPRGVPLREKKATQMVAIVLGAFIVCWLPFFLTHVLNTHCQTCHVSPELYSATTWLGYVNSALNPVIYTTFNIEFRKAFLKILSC

| Structure (SMILES) | Ki [1] [nM] | Ki ([2]; Table III, read-out: d3Ki) [nM] | Ki [2] [nM] | other results |
| --- | --- | --- | --- | --- |
| O=C(NCCCCN1CCN(c2csc3cc(F)ccc23)CC1)Nc1ccccc1 [compound 813581] | 1.5 | – | – | – |
| CC(=O)c1ccc(NC(=O)NCCCCN2CCN(c3csc4cc(F)ccc34)CC2)cc1 [compound 814932] | 2.2 | – | – | – |
| CCCCc1ccc(NC(=O)NCCCCN2CCN(c3csc4cc(F)ccc34)CC2)cc1 [compound 814937] | 532 | – | – | – |
| O=C(NCCCCN1CCN(c2csc3cc(F)ccc23)CC1)NC1CCCCC1 [compound 814945] | 4.5 | – | – | – |
| O=C(NCCCCN1CCN(c2csc3cc(F)ccc23)CC1)Nc1ccc(Br)cc1 [compound 814949] | 18.2 | – | – | – |
| O=C(NCCCCN1CCN(c2csc3cc(F)ccc23)CC1)Nc1ccc(C(F)(F)F)cc1 [compound 814952] | 44.8 | – | – | – |
| CC(=O)c1ccc(NC(=O)NCCCCN2CCN(c3csc4cc(C(F)(F)F)ccc34)CC2)cc1 [compound 815993] | 74.9 | 2.26 | – | – |
| Cc1ccc(NC(=O)NCCCCN2CCN(c3csc4cc(C(F)(F)F)ccc34)CC2)cc1 [compound 815997] | 936 | 4.5 | – | halpha1 % I ([1]; @1 μM): 23.5% Inh @1 μM |
| O=C(NCCCCN1CCN(c2csc3cc(C(F)(F)F)ccc23)CC1)NC1CCCCC1 [compound 816001] | 83.6 | 4.68 | – | – |
| O=C(NCCCCN1CCN(c2csc3cc(C(F)(F)F)ccc23)CC1)Nc1cccc(F)c1 [compound 816003] | 56.7 | 1.58 | – | – |
| O=C(NCCCCN1CCN(c2csc3cc(C(F)(F)F)ccc23)CC1)Nc1ccccc1 [compound 816005] | 56.8 | 2.54 | – | – |
| O=C(NC[C@@H]1C[C@H]1CN1CCN(c2csc3cc(C(F)(F)F)ccc23)CC1)Nc1ccc(Oc2ccccc2)cc1 [compound 832820] | – | – | 3.9 | – |
| CC(C)c1ccc(NC(=O)NC[C@@H]2C[C@H]2CN2CCN(c3csc4cc(C(F)(F)F)ccc34)CC2)cc1 [compound 832919] | – | – | 45.2 | – |
| COc1cccc(NC(=O)NC[C@@H]2C[C@H]2CN2CCN(c3csc4cc(C(F)(F)F)ccc34)CC2)c1 [compound 833203] | – | – | 18.2 | – |
| O=C(NCCCN1CCCCC1)NC[C@@H]1C[C@H]1CN1CCN(c2csc3cc(C(F)(F)F)ccc23)CC1 [compound 833258] | – | – | 0.39 | – |
| O=C(NCCCn1ccnc1)NC[C@@H]1C[C@H]1CN1CCN(c2csc3cc(C(F)(F)F)ccc23)CC1 [compound 833306, 1-(3-Imidazol-1-yl-propyl)-3-{(1R, 2R )-2-[4-(6-trifluoromethyl-benzo[b]thiophen-3yl-)-piperazin-1-ylmethyl]-cyclopropylmethyl}-urea] | – | – | 0.238 | – |
| O=C(NCCCCN1CCN(c2csc3cc(C(F)(F)F)ccc23)CC1)Nc1ccc(CO)cc1 [compound 833725] | – | – | 0.602 | – |

Now from value to molecule, other results behind:

| Ki [1] [nM] | Ki ([2]; Table III, read-out: d3Ki) [nM] | Ki [2] [nM] | Structure (SMILES) | other results |
| --- | --- | --- | --- | --- |
| 1.8 | – | – | COc1ccc(NC(=O)NCCCCN2CCN(c3csc4cc(F)ccc34)CC2)cc1 [compound 814933] | – |
| 13.5 | – | – | Cc1ccc(NC(=O)NCCCCN2CCN(c3csc4cc(F)ccc34)CC2)cc1 [compound 814941] | – |
| 3.5 | – | – | O=C(NCCCCN1CCN(c2csc3cc(F)ccc23)CC1)Nc1cccc(F)c1 [compound 814953] | – |
| 1220 | 8.87 | – | COc1ccc(NC(=O)NCCCCN2CCN(c3csc4cc(C(F)(F)F)ccc34)CC2)cc1 [compound 815994] | halpha1 % I ([1]; @1 μM): 11.9& Inh @1 μM % Inh |
| – | 17.5 | – | CCCOc1ccc(NC(=O)NCCCCN2CCN(c3csc4cc(C(F)(F)F)ccc34)CC2)cc1 [compound 815995] | halpha1 % I ([1]; @10 μM): 42.4% Inh @10 μM |
| 234 | 6.31 | – | O=C(NCCCCN1CCN(c2csc3cc(C(F)(F)F)ccc23)CC1)Nc1ccc(Br)cc1 [compound 816000] | – |
| 435 | 12.5 | – | O=C(NCCCCN1CCN(c2csc3cc(C(F)(F)F)ccc23)CC1)Nc1ccc(C(F)(F)F)cc1 [compound 816002] | halpha1 % I ([1]; @1 μM): 30.2% Inh @1 μM |
| – | – | 29.1 | C[C@H]1CC[C@H](NC(=O)NC[C@@H]2C[C@H]2CN2CCN(c3csc4cc(C(F)(F)F)ccc34)CC2)CC1 [compound 833356] | – |
| – | – | 2.1 | O=C(NCCCCN1CCN(c2csc3cc(C(F)(F)F)ccc23)CC1)Nc1ccc(C(=O)O)cc1 [compound 833724] | – |
